Earlier results on 1 compound are cited in patent publication EP2117510B1, “PARENTERAL PHARMACEUTICAL COMPOSITION AND METHOD FOR PREPARING THE SAME” (Physica Pharma, priority 2007, dated 2008).

For the series the following is noted: water, room temperature (environ 22° C).

Structures are written as SMILES.

`CC(C)c1cccc(C(C)C)c1O` [Propofol, 2,6-diisopropylphénol]: the “solubilité dans l'eau” value is given as roughly 160 µg/mL.
